Entries after “also recorded” stand apart in the source; their conditions may differ.
Legend:
[1] = tested on: DU-145 human prostate tumors; assay: Human DU-145 prostate tumors transplanted into athymic mice, oral treatment; format: in vivo, athymic BALB/c nude-nu mice; conditions: 400 mg/kg oral
Description: Male athymic BALB/c nude-nu mice (6-8 weeks old, 18-22 g each) were purchased from Harlan Sprague-Dawley, Inc. (Indianapolis, Ind.) and maintained in a germ-free environment. The mice had free access to sterile food and water. Human prostate DU-145 cells (1×10^7) were transplanted subcutaneously into athymic mice. Solid tumors appearing after 30 days were cut into small pieces (2-2 mm) and transplanted into native mice. […] The treatment schedule consisted of a single dose on alternate days. The control group of animals (3 mice) received vehicle only. […] At this point, the treatment was terminated and animals were kept under observation for the regrowth of prostate tumors.
formula % TGI = 100(1Vt /Vc), where Vt and Vc are the […]

[2] = tested on: lung carcinoma (non-small cell); assay: Human tumor cloning system, lung carcinoma (non-small cell); format: cell-based; conditions: responsive = at least 50% inhibition of tumor colony formation
Experimental: Through the initial work of Hamburger and Salmon (1977 a,b), it is possible to culture human tumors using a two-layer soft agar system. This culture system, called the human tumor cloning system, was initially utilized to select the most appropriate anticancer agent for an individual patient's tumor. […] In an in vitro-in vivo correlation study involving 800 patients retrospectively, it was determined that the true positive rate for this assay was 70%, while the true negative rate for the assay was 98% (Von Hoff et al., 1981). In a more recent prospective clinical trial of the cloning system involving 604 patients, the percent true positive for the assay was 64%, while the percent true negative for the assay was 86% (Von Hoff et al., 1983). […] This system was used to study the response of compound C1 for breast cancer and non-small cell lung carcinoma.
Collection and preparation of tumor cells: After obtaining informed consent in accordance with federal and institutional guidelines, malignant effusions, ascites and bone marrow aspirates containing tumor cells as well as solid tumor specimens were collected from patients undergoing procedure carried out as a part of their diagnostic workup or as part of treatment for their disease. […] The viability of cell suspensions thus obtained was determined with trypan blue.
Tumor cells to be cloned were suspended in 0.3% agar in enriched CMRL 1066 medium (Gibco, Grand Island, N.Y.) supplemented with 15% heat-inactivated horse serum, penicillin (100 units/ml), streptomycin (2 mg/ml) glutamine (2 mM), insulin (3 units/ml), asparagine (0.6 mg/ml), and HEPES buffer (2 mM). […] After an incubation period of 14 days, plates were removed and the number of colonies were counted in each plate. The number of colonies (defined as >50 cells) formed were compared in drug treated and untreated (control) plates and the percent colonies surviving at each drug dose tested was then calculated as a percentage of control. […]

[3] = In vivo toxicity, single escalating oral dose; conditions: BALB/c mice
Experimental: A single escalating dose of the test drag is a procedure where a dose is administered to a group of mice (in this case n=3). If toxicity is not elicited, the next higher dose is given to a fresh group of mice and so on until toxicity is observed.

HCT-15 = assay: NCI tumor cell line screen (SRB assay); format: cell-based; conditions: Homo sapiens, read-out: PERCENT GROWTH
Experimental: (§1) The National Cancer Institute carried out the studies at the direction of the present inventor.
(§2) In the tests, the National Cancer Institute used the SRB (sulforhodamine B) assay as described by Skehan et al., (Journal of the National Cancer Institute, 82:13, Jul. 4, 1990, 1107-1112). Briefly, the assay is as follows. TCA-fixed cells were stained for 30 minutes with 0.4% (wt/vol) SRB dissolved in 1% acetic acid. At the end of the staining period, SRB was removed and cultures were quickly rinsed four times with 1% acetic acid to remove unbound dye. The acetic acid was poured directly into the culture wells from a beaker. […] Residual wash solution was removed by sharply flicking plates over a sink, which ensured the complete removal of rinsing solution. […] After being rinsed, the cultures were air dried until no standing moisture was visible. Bound dye was solubilized with 10 mM unbuffered Tris base (pH 10.5) for 5 minutes on a gyratory shaker.
(§3) Optical density (OD) was read in either a UVmax microtiter plate reader (Molecular Devices, Menlo Park, Calif.) or a Beckman DU-70 spectrophotometer. For maximum sensitivity, OD was measured at 564 nm. Because readings were linear with dye concentrations only below 1.8 OD units, however, suboptimal wavelengths were generally used, so that all samples in an experiment remained within the linear OD range. With most cell lines, wavelengths of approximately 490-530 nm worked well for this purpose.
(§4) Nine different non-small cell lung carcinoma cell lines, six different colon carcinoma cell lines, six different CNS (central nervous system) carcinoma cell lines, seven different melanoma cell lines, six different ovarian carcinoma cell lines, and eight different renal carcinoma cell lines were tested.

MALME-3M = assay: NCI tumor cell line screen (SRB assay); format: cell-based; conditions: Homo sapiens, read-out: PERCENT GROWTH
Experimental: as §1, §2, §3, §4

NCI-H322M = assay: NCI tumor cell line screen (SRB assay); format: cell-based; conditions: Homo sapiens, read-out: PERCENT GROWTH
Experimental: as §1, §2, §3, §4

Which results are given for CCCCN1C(=O)CC(=O)N(CCCC)C1=S [Compound C1, 4,6(1H, 5H)-pyrimidinedione, 1,3-dibutyldihydro-2-thioxo]?
regrowth of tumors ([1]; 5 months posttreatment): no signs of tumor regrowth; also recorded: regrowth of treated tumors did not occur for a period of 5 months; palpable prostate tumors ([1]; after 18 doses): palpable prostate tumors in the treated group could not be detected; also recorded: palpable tumors were not detectable in treated animals; % TGI (percent tumor growth inhibition) ([1]; alternate days, 18 doses): 99.0%; side effects such as weight loss, diarrhea, lethargy or discomfort ([1]; alternate days, 18 doses): not observed; also recorded: No observable side effects; Tumor Area ([1]; alternate days, 18 doses, control 19.90 ± 7.1): 0.0 cm^2; Tumor Volume ([1]; alternate days, 18 doses, control 20.64 ± 7.01): 0.0 cm^3; Animal Weight ([1]; alternate days, 18 doses, control 28.5): 29.3 g; # responsive tumors/total # evaluated ([2]; 75 μg/ml): 0/1; # responsive tumors/total # evaluated ([2]; 100 μg/ml): 1/1; # responsive tumors/total # evaluated ([2]; 125 μg/ml): 1/1; lethal single dose [3]: 2000 mg/kg; MTD ([3]; mouse, in vivo, read-out: single dose easily tolerated): ≥ 1200 mg/kg; activity at 100 µM (HCT-15; 10^-4.0 Molar): 72%; activity at 10 µM (HCT-15; 10^-5.0 Molar): 102%; activity at 1 µM (HCT-15; 10^-6.0 Molar): 102%; activity at 0.1 µM (HCT-15; 10^-7.0 Molar): 99%; activity (MALME-3M; 10^-3.0 Molar): -83%; activity at 100 µM (MALME-3M; 10^-4.0 Molar): 81%; activity at 10 µM (MALME-3M; 10^-5.0 Molar): 101%; activity at 1 µM (MALME-3M; 10^-6.0 Molar): 101%; activity at 0.1 µM (MALME-3M; 10^-7.0 Molar): 101%; activity (NCI-H322M; 10^-3.0 Molar): -100%; activity at 100 µM (NCI-H322M; 10^-4.0 Molar): 127%; activity at 10 µM (NCI-H322M; 10^-5.0 Molar): 136%; activity at 1 µM (NCI-H322M; 10^-6.0 Molar): 144%; activity at 0.1 µM (NCI-H322M; 10^-7.0 Molar): 145%

Source: patent publication US5869494A, “Uses for barbituric acid analogs” (priority 1997, dated 1999)
